Drawing on ChEMBL document CHEMBL4251708, “Synthesis and Biological Screening of Pyrano[3,2-c]quinoline Analogues as Anti-inflammatory and Anticancer Agents” (ACS Med Chem Lett, 2018), this text covers Activity for 2 molecules.

Structures are written as SMILES.

Holding throughout (assay type): functional
Test [1] has as its system ACHN. In words: Antiproliferative activity against human ACHN cells at 700 nM after 48 hrs by propidium iodide staining based fluorometry relative to control.
Test [2] deals with PANC-1. In words: Antiproliferative activity against human PANC1 cells at 700 nM after 48 hrs by propidium iodide staining based fluorometry relative to control.
Test [3] relates to HCT-116. In words: Antiproliferative activity against human HCT116 cells at 700 nM after 48 hrs by propidium iodide staining based fluorometry relative to control.
Test [4] concerns NCI-H460. In words: Antiproliferative activity against human H460 cells at 700 nM after 48 hrs by propidium iodide staining based fluorometry relative to control.
Test [5] deals with Calu-1. The test can be described thus: Antiproliferative activity against human Calu1 cells at 700 nM after 48 hrs by propidium iodide staining based fluorometry relative to control.
The test system of test [6] is ACHN. In words: Antiproliferative activity against human ACHN cells at 500 nM after 48 hrs by propidium iodide staining based fluorometry relative to control.
Test [7] has as its system PANC-1. The test can be described thus: Antiproliferative activity against human PANC1 cells at 500 nM after 48 hrs by propidium iodide staining based fluorometry relative to control.
Test [8] relates to HCT-116. The test can be described thus: Antiproliferative activity against human HCT116 cells at 500 nM after 48 hrs by propidium iodide staining based fluorometry relative to control.
The test system of test [9] is NCI-H460. In words: Antiproliferative activity against human H460 cells at 500 nM after 48 hrs by propidium iodide staining based fluorometry relative to control.
The subject of test [10] is Calu-1. The test can be described thus: Antiproliferative activity against human Calu1 cells at 500 nM after 48 hrs by propidium iodide staining based fluorometry relative to control.

In the case of `CN1CC[C@H](c2c(O)cc(O)c3c(=O)cc(-c4ccccc4Cl)oc23)[C@H](O)C1` [ALVOCIDIB], the Activity with ACHN [1] turned out to be 71%; with PANC-1 [2], 78%; in the test with HCT-116 [3], 71%; with NCI-H460 [4] it was 88%; in the test on Calu-1 [5] it was 74%.
On to `Nc1ccn([C@@H]2O[C@H](CO)[C@@H](O)C2(F)F)c(=O)n1` [GEMCITABINE], for which the Activity came out at 73% in the test with ACHN [6]; 74% with PANC-1 [7]; 73% in the test on HCT-116 [8]; 71% in the test on NCI-H460 [9]; 79% in the test with Calu-1 [10].
